Data from patent US11208385B2, “N-substituted imidazole carboxylate compound, preparation method and use” (priority 2017, dated 2021).
Where two headings read alike, the source gives them in different places.

Key:
SD rats [1] = conditions: for Incidence rate (%) of muscle tremor: single iv dose of 2ED50, 10 rats per group; for Time of keeping anaesthesia / Time of complete recovery: single iv dose of 2ED50; for Time of keeping anaesthesia: from abolition to recovery of righting reflex; for Time of complete recovery: from recovery of righting reflex to free walk
Method: 150 male SD rats weighing 250˜300 g were randomly divided into 15 groups, 10 rats for one group. […] Drugs were injected to rats via caudal vein, and the injection time was 15 seconds. The abolition of righting reflex for 30 s or above was used as the indicator producing anaesthetic effect.

SD rats [2] = conditions: for Time of complete recovery / Wake time after drug withdrawal: after 1 h continual infusion; for Time of complete recovery: from recovery of righting reflex to free walk; for Wake time after drug withdrawal: recovery time of righting reflex after discontinuance; for Incidence rate (%) of muscle tremor: continual infusion for 1 h
Method: 30 male SD rats weighing 250˜300 g were randomly divided into 6 groups, 5 rats for one group. […] Each drug was continually infused to rats via caudal vein, and made the righting reflex abolish, and the abolition of righting reflex was maintained for 1 hour. The wake time after drug withdrawal and the time of full recovery were recorded.

[3] = In vitro degradation experiment in rat liver homogenate (HPLC); type: in vitro ADME; conditions: rat liver homogenate, 37° C., 50 μg/mL
Method: In Vitro Degradation Experiment of Compounds.
Chromatographic condition: mobile phase is methanol: H2O=65:35, and the water phase contains 0.06% ammonium acetate; the flow rate is 1 mL/min; the column temperature is 25° C.
Apparatus: Agilent 1100 Series. Chromatographic column: Aglent Eclipse Plus C18 column, 5 μm 4.6*[…].
The linear range is 1-50 μg/mL.
After fasting for 24 h, male SD rats were treated to collect liver, and the water on the surface of liver was removed using the filter paper, then liver was weighed. […] Then, the homogenate was centrifugated at 10000 g for 20 min at the temperature of 4° C. The supernatant solution was collected, and 14 samples (2 mL) of liver homogenate were taken out and warmed to 37° C. in water bath. Each compound (content 10 mg/mL, 10 μl) was added, respectively, to make a concentration of 50 μg/mL in liver homogenate.
[…] After centrifugation, the supernatant solution was taken out and injected. The concentration of each compound at each time point was detected, that was divided by the initial concentration of each compound, to obtain the degradation ratio of each compound.

C[C@H](c1ccccc1)n1cncc1C(=O)OCOC(=O)OC(C(F)(F)F)C(F)(F)F [Example 9]
Incidence rate (%) of muscle tremor (SD rats [1]): 0%
Time of keeping anaesthesia (SD rats [1]): 8.1 ± 2.3 min
Time of complete recovery (SD rats [1]): 7.2 ± 2.9 min
Time of complete recovery (SD rats [2]): 55 ± 38 min
Wake time after drug withdrawal (SD rats [2]): 20 ± 14 min
Incidence rate (%) of muscle tremor (SD rats [2]): 0%
Residual rate at 5 min (%) [3]: 72.1%
Residual rate at 10 min (%) [3]: 50.3%
Residual rate at 20 min (%) [3]: 39.8%

CC(C)OC(=O)OC(C)OC(=O)c1cncn1[C@H](C)c1ccccc1 (stereo partly drawn) [Example 8]
Incidence rate (%) of muscle tremor (SD rats [1]): 10%
Time of keeping anaesthesia (SD rats [1]): 2.3 ± 0.3 min
Time of complete recovery (SD rats [1]): 1.9 ± 1^ min
Time of complete recovery (SD rats [2]): 1.8 ± 0.6 min
Wake time after drug withdrawal (SD rats [2]): 4.9 ± 2.7 min
Incidence rate (%) of muscle tremor (SD rats [2]): 10%
Residual rate at 5 min (%) [3]: 2.1%
Residual rate at 10 min (%) [3]: 0%
Residual rate at 20 min (%) [3]: 0%

CCC(C)OC(=O)OCOC(=O)c1cncn1[C@H](C)c1ccccc1 (stereo partly drawn) [Example 11]
Incidence rate (%) of muscle tremor (SD rats [1]): 0%
Time of keeping anaesthesia (SD rats [1]): 2.8 ± 1.1 min
Time of complete recovery (SD rats [1]): 2.1 ± 1.2 min

C[C@H](c1ccccc1)n1cncc1C(=O)OCOC(=O)OC(C)(C)C [Example 4]
Incidence rate (%) of muscle tremor (SD rats [1]): 0%
Time of keeping anaesthesia (SD rats [1]): 8.3 ± 1.4 min
Time of complete recovery (SD rats [1]): 6.1 ± 1.6 min
Time of complete recovery (SD rats [2]): 90 ± 37 min
Wake time after drug withdrawal (SD rats [2]): 25 ± 24 min
Incidence rate (%) of muscle tremor (SD rats [2]): 20%
Residual rate at 5 min (%) [3]: 89.3%
Residual rate at 10 min (%) [3]: 60.1%
Residual rate at 20 min (%) [3]: 43.6%

CC[C@@H](C)OC(=O)OCOC(=O)c1cncn1[C@H](C)c1ccccc1 [Example 16]
Incidence rate (%) of muscle tremor (SD rats [1]): 0%
Time of keeping anaesthesia (SD rats [1]): 3.1 ± 0.4 min
Time of complete recovery (SD rats [1]): 2.1 ± 0.5 min
Time of complete recovery (SD rats [2]): 2.1 ± 0.5 min
Wake time after drug withdrawal (SD rats [2]): 4.5 ± 2.2 min
Incidence rate (%) of muscle tremor (SD rats [2]): 0%
Residual rate at 5 min (%) [3]: 3.2%
Residual rate at 10 min (%) [3]: 0%
Residual rate at 20 min (%) [3]: 0%

CC(C)OC(=O)OCOC(=O)c1cncn1[C@H](C)c1ccccc1 [Example 3]
Incidence rate (%) of muscle tremor (SD rats [1]): 0%
Time of keeping anaesthesia (SD rats [1]): 2.1 ± 0.3 min
Time of complete recovery (SD rats [1]): 1.3 ± 0.5 min
Time of complete recovery (SD rats [2]): 1.9 ± 0.9 min
Wake time after drug withdrawal (SD rats [2]): 3.4 ± 1.1 min
Incidence rate (%) of muscle tremor (SD rats [2]): 0%
Residual rate at 5 min (%) [3]: 0%
Residual rate at 10 min (%) [3]: 0%
Residual rate at 20 min (%) [3]: 0%

CC(C)COC(=O)OCOC(=O)c1cncn1[C@H](C)c1ccccc1 [Example 5]
Incidence rate (%) of muscle tremor (SD rats [1]): 10%
Time of keeping anaesthesia (SD rats [1]): 3 ± 1.1 min
Time of complete recovery (SD rats [1]): 3.3 ± 2.1 min
Time of complete recovery (SD rats [2]): 3.9 ± 2.6 min
Wake time after drug withdrawal (SD rats [2]): 6.2 ± 1.2 min
Incidence rate (%) of muscle tremor (SD rats [2]): 10%
Residual rate at 5 min (%) [3]: 0%
Residual rate at 10 min (%) [3]: 0%
Residual rate at 20 min (%) [3]: 0%

COC(=O)OCOC(=O)c1cncn1[C@H](C)c1ccccc1 [Example 1]
Incidence rate (%) of muscle tremor (SD rats [1]): 0%
Time of keeping anaesthesia (SD rats [1]): 1.5 ± 0.6 min
Time of complete recovery (SD rats [1]): 1.4 ± 0.5 min
Time of complete recovery (SD rats [2]): 4.1 ± 1.1 min
Wake time after drug withdrawal (SD rats [2]): 2.1 ± 1.1 min
Incidence rate (%) of muscle tremor (SD rats [2]): 0%
Residual rate at 5 min (%) [3]: 0%
Residual rate at 10 min (%) [3]: 0%
Residual rate at 20 min (%) [3]: 0%

CC(C)OC(=O)OCOC(=O)c1cncn1[C@H](C)c1ccccc1 [Example 12]
Incidence rate (%) of muscle tremor (SD rats [1]): 0%
Time of keeping anaesthesia (SD rats [1]): 2.2 ± 0.5 min
Time of complete recovery (SD rats [1]): 1.2 ± 0.6 min

CCC(C)OC(=O)OCOC(=O)c1cncn1[C@H](C)c1ccccc1.Cl (stereo partly drawn) [Example 10]
Incidence rate (%) of muscle tremor (SD rats [1]): 0%
Time of keeping anaesthesia (SD rats [1]): 2.5 ± 0.7 min
Time of complete recovery (SD rats [1]): 2.0 ± 0.9 min

CCOC(=O)OCOC(=O)c1cncn1[C@H](C)c1ccccc1 [Example 2]
Incidence rate (%) of muscle tremor (SD rats [1]): 0%
Time of keeping anaesthesia (SD rats [1]): 1 ± 0.5 min
Time of complete recovery (SD rats [1]): 2.5 ± 0.4 min
Time of complete recovery (SD rats [2]): 3.1 ± 1.8 min
Wake time after drug withdrawal (SD rats [2]): 3.1 ± 1.2 min
Incidence rate (%) of muscle tremor (SD rats [2]): 0%
Residual rate at 5 min (%) [3]: 0%
Residual rate at 10 min (%) [3]: 0%
Residual rate at 20 min (%) [3]: 0%

CCC(C)OC(=O)OCOC(=O)c1cncn1[C@H](C)c1ccccc1 (stereo partly drawn) [Example 6]
Incidence rate (%) of muscle tremor (SD rats [1]): 0%
Time of keeping anaesthesia (SD rats [1]): 2.4 ± 0.6 min
Time of complete recovery (SD rats [1]): 1.7 ± 0.4 min
Time of complete recovery (SD rats [2]): 2.1 ± 1.5 min
Wake time after drug withdrawal (SD rats [2]): 3.1 ± 1.9 min
Incidence rate (%) of muscle tremor (SD rats [2]): 0%
Residual rate at 5 min (%) [3]: 4.7%
Residual rate at 10 min (%) [3]: 0.9%
Residual rate at 20 min (%) [3]: 0%

CC[C@H](C)OC(=O)OCOC(=O)c1cncn1[C@H](C)c1ccccc1 [Example 17]
Incidence rate (%) of muscle tremor (SD rats [1]): 0%
Time of keeping anaesthesia (SD rats [1]): 2.2 ± 0.3 min
Time of complete recovery (SD rats [1]): 1.6 ± 0.2 min
Residual rate at 5 min (%) [3]: 3.1%
Residual rate at 10 min (%) [3]: 0%
Residual rate at 20 min (%) [3]: 0%

CCC(OC(=O)OC(C)C)OC(=O)c1cncn1[C@H](C)c1ccccc1 (stereo partly drawn) [Example 28]
Incidence rate (%) of muscle tremor (SD rats [1]): 0%
Time of keeping anaesthesia (SD rats [1]): 3.5 ± 1.1 min
Time of complete recovery (SD rats [1]): 2.1 ± 0.5 min
Time of complete recovery (SD rats [2]): 22.5 ± 4.8 min
Wake time after drug withdrawal (SD rats [2]): 10.1 ± 2.3 min
Incidence rate (%) of muscle tremor (SD rats [2]): 0%
Residual rate at 5 min (%) [3]: 5.3%
Residual rate at 10 min (%) [3]: 0%
Residual rate at 20 min (%) [3]: 0%
